The values below come from patent US8741806B2, “Herbicides” (Syngenta Limited, priority 2009, dated 2014).

Each structure is given as a SMILES string.

Common to all, as to format: in vivo
The test system of assay [1] is Digitaria sanguinalis (DIGSA). Nature of the assay: Example A pre-emergence herbicidal activity, glasshouse pot test. The conditions noted are these: Rate 250 g/ha, evaluated 20 days later, 100=total damage to plant, 0=no damage to plant. Here is the method: (§1) Seeds of a variety of test species were sown in standard soil in pots. After cultivation for one day (pre-emergence) or after 10 days cultivation (post-emergence) under controlled conditions in a glasshouse, the plants were sprayed with an aqueous spray solution derived from the formulation of the technical active ingredient of formula I in 0.6 ml acetone and 45 ml formulation solution containing 10.6% Emulsogen EL (Registry number 61791-12-6), 42.2% N-methylpyrrolidone, 42.2% dipropylene glycol monomethyl ether (Registry number 34590-94-8) and 0.2% X-77 (Registry number 11097-66-8). The test plants were then grown in a greenhouse under optimum conditions until, 15 days later for post-emergence and 20 days for pre-emergence, the test was evaluated (100=total damage to plant; 0=no damage to plant). The compound of Example 1-8-a-1 from WO99/48869 was also sprayed for comparison. Alopecurus myosuroides (ALOMY), Avena fatua (AVEFA), Lolium perenne (LOLPE), Setaria faberi (SETFA), Digitaria sanguinalis (DIGSA), Echinochloa crus-galli (ECHCG) and Sorghum bicolor (SORVU) Pre-Emergence Activity

Assay [2] concerns Alopecurus myosuroides (ALOMY). The description is as above. Particulars: Rate 250 g/ha, evaluated 20 days later, 100=total damage to plant, 0=no damage to plant. The method, then:
as §1

The test system of assay [3] is Avena fatua (AVEFA). The description is as above. The conditions noted are these: Rate 250 g/ha, evaluated 20 days later, 100=total damage to plant, 0=no damage to plant. Here is the method:
as §1

In assay [4] the test system is Setaria faberi (SETFA). Described as above. The conditions noted are these: Rate 250 g/ha, evaluated 20 days later, 100=total damage to plant, 0=no damage to plant. Here is the method: as §1
Assay [5] deals with Echinochloa crus-galli (ECHCG). Described as above. The conditions noted are these: Rate 250 g/ha, evaluated 20 days later, 100=total damage to plant, 0=no damage to plant. The method, then:
as §1

Assay [6] concerns Lolium perenne (LOLPE). Described as above. The conditions noted are these: Rate 250 g/ha, evaluated 20 days later, 100=total damage to plant, 0=no damage to plant. The method, then: as §1
Another assay has as its system Sorghum bicolor (SORVU). Nature of the assay: Example A post-emergence herbicidal activity, glasshouse pot test. The conditions noted are these: Rate 15 g/ha, evaluated 15 days later, 100=total damage to plant, 0=no damage to plant. The method, then: as §1, with “Post-Emergence” for “Pre-Emergence”
Assay [7] has as its system Digitaria sanguinalis (DIGSA). The description is as above. Particulars: Rate 15 g/ha, evaluated 15 days later, 100=total damage to plant, 0=no damage to plant. Here is the method:
as §1, with “Post-Emergence” for “Pre-Emergence”

Assay [8] has as its system Alopecurus myosuroides (ALOMY). The assay is described as above. The conditions noted are these: Rate 15 g/ha, evaluated 15 days later, 100=total damage to plant, 0=no damage to plant. Here is the method: as §1, with “Post-Emergence” for “Pre-Emergence”
For assay [9], the system named is Avena fatua (AVEFA). Described as above. Particulars: Rate 15 g/ha, evaluated 15 days later, 100=total damage to plant, 0=no damage to plant. Here is the method: as §1, with “Post-Emergence” for “Pre-Emergence”
The subject of assay [10] is Setaria faberi (SETFA). Described as above. Particulars: Rate 15 g/ha, evaluated 15 days later, 100=total damage to plant, 0=no damage to plant. Here is the method: as §1, with “Post-Emergence” for “Pre-Emergence”
The test system of assay [11] is Echinochloa crus-galli (ECHCG). The assay is described as above. The conditions noted are these: Rate 15 g/ha, evaluated 15 days later, 100=total damage to plant, 0=no damage to plant. Here is the method: as §1, with “Post-Emergence” for “Pre-Emergence”
For assay [12], the system named is Alopecurus myosuroides (ALOMY). Nature of the assay: Example B pre-emergence herbicidal activity, glasshouse pot test. The conditions noted are these: 312 h, rate 250 g/ha, evaluated after 13 days, scale 0-100, read-out: Pre-emergence activity ALOMY (100=total damage to plant; 0=no damage to plant). In outline: (§2)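 Pots were sprayed one day after sowing with the active ingredient in acetone/water (50:50) containing 0.5% Tween 20. Plants were kept in a glasshouse at 24/16° C day/night, 14 h light, 65% humidity. Damage was scored 13 days later (0 none to 100 total).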

In assay [13] the test system is Avena fatua (AVEFA). Described as above. The conditions noted are these: 312 h, rate 250 g/ha, evaluated after 13 days, scale 0-100, read-out: Pre-emergence activity AVEFA (100=total damage to plant; 0=no damage to plant). In outline:
as §2

Assay [14] relates to Setaria faberi (SETFA). Described as above. The conditions noted are these: rate 250 g/ha, evaluated after 13 days, scale 0-100. In outline: as §2
Assay [15] has as its system Echinochloa crus-galli (ECHCG). The assay is described as above. The conditions noted are these: 312 h, rate 250 g/ha, evaluated after 13 days, scale 0-100, read-out: Pre-emergence activity ECHCG (100=total damage to plant; 0=no damage to plant). In outline: as §2
Assay [16] relates to Alopecurus myosuroides (ALOMY). As to the kind of experiment: Example B post-emergence herbicidal activity, glasshouse pot test. Particulars: 312 h, rate 250 g/ha, evaluated after 13 days, scale 0-100, read-out: Post-emergence activity ALOMY (100=total damage to plant; 0=no damage to plant). An outline of the steps:
(§3)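 Seeds sown in standard soil, grown 8 days in glasshouse (24/16 °C day/night, 14 h light, 65% humidity), then sprayed post-emergence with compound in acetone/water (50:50) containing 0.5% Tween 20. Damage scored visually after 13 days on a 0–100 scale (100 = total damage).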

Assay [17] relates to Avena fatua (AVEFA). Described as above. The conditions noted are these: 312 h, rate 250 g/ha, evaluated after 13 days, scale 0-100, read-out: Post-emergence activity AVEFA (100=total damage to plant; 0=no damage to plant). In outline: as §3
Assay [18] relates to Setaria faberi (SETFA). The description is as above. Particulars: rate 250 g/ha, evaluated after 13 days, scale 0-100. An outline of the steps: as §3
Assay [19] concerns Echinochloa crus-galli (ECHCG). The assay is described as above. Particulars: 312 h, rate 250 g/ha, evaluated after 13 days, scale 0-100, read-out: Post-emergence activity ECHCG (100=total damage to plant; 0=no damage to plant). An outline of the steps:
as §3

Assay [20] has as its system Lolium perenne (LOLPE). Nature of the assay: Example B pre-emergence herbicidal activity, glasshouse pot test. Particulars: 312 h, rate 250 g/ha, evaluated after 13 days, scale 0-100, read-out: Pre-emergence activity LOLPE (100=total damage to plant; 0=no damage to plant). An outline of the steps: as §2
Assay [21] deals with Lolium perenne (LOLPE). Nature of the assay: Example B post-emergence herbicidal activity, glasshouse pot test. Particulars: 312 h, rate 250 g/ha, evaluated after 13 days, scale 0-100, read-out: Post-emergence activity LOLPE (100=total damage to plant; 0=no damage to plant). In outline:
as §3

As to `Cc1ccc(-c2ccc(Cl)cc2)cc1C1=C(O)C(C)(C)CCC1=O` [Example 1-8-a-1 from WO99/48869, reference compound], the “Pre-Emergence Activity DIGSA (damage to plant)” value in [1] is reported as 70. In addition, the “Pre-Emergence Activity ALOMY (damage to plant)” value in assay [2] amounted to 20. For the same compound, in the assay on Avena fatua (AVEFA) [3], the “Pre-Emergence Activity AVEFA (damage to plant)” value is listed as 0. Besides, in the assay with Setaria faberi (SETFA) [4], the “Pre-Emergence Activity SETFA (damage to plant)” value was 30. The “Pre-Emergence Activity ECHCG (damage to plant)” value in [5] is listed as 90. Moreover, the “Pre-Emergence Activity LOLPE (damage to plant)” value in the assay on Lolium perenne (LOLPE) [6] stood at 20. The “Post-Emergence Activity SORVU (damage to plant)” value with Sorghum bicolor (SORVU) worked out at 0. The “Post-Emergence Activity DIGSA (damage to plant)” value in assay [7] was 20. Besides, in [8], the “Post-Emergence Activity ALOMY (damage to plant)” value is reported as 0. Besides, the “Post-Emergence Activity AVEFA (damage to plant)” value in the assay with Avena fatua (AVEFA) [9] is reported as 0. In addition, the “Post-Emergence Activity SETFA (damage to plant)” value in the assay with Setaria faberi (SETFA) [10] is recorded as 20. The “Post-Emergence Activity ECHCG (damage to plant)” value in [11] turned out to be 70.

For the compound `CCc1ccc(-c2ccc(Cl)cc2)cc1C1=C(O)C(C)(C)CCC1=O` [Compound T1, 2-(4′-chloro-4-ethylbiphen-3-yl)-4,4-dimethyl-1,3-cyclohexanedione], in assay [2], the “Pre-Emergence Activity ALOMY (damage to plant)” value amounted to 60. The “Pre-Emergence Activity AVEFA (damage to plant)” value in the assay with Avena fatua (AVEFA) [3] was found to be 70. In addition, the “Pre-Emergence Activity SETFA (damage to plant)” value in the assay on Setaria faberi (SETFA) [4] worked out at 100. In addition, the “Pre-Emergence Activity ECHCG (damage to plant)” value in assay [5] stood at 90. Moreover, the “Pre-Emergence Activity LOLPE (damage to plant)” value in the assay with Lolium perenne (LOLPE) [6] stood at 90. Moreover, the pest or weed control at 250 g/ha in assay [12] worked out at 50%; with Avena fatua (AVEFA) [13], 0%; in assay [15], 100%; in assay [16], 90%; in the assay with Avena fatua (AVEFA) [17], 40%; in [19] it was 100%. Moreover, in the assay on Setaria faberi (SETFA) [14], the “Pre-emergence activity SETFA (100=total damage to plant; 0=no damage to plant)” value is reported as 100. In addition, the “Post-emergence activity SETFA (100=total damage to plant; 0=no damage to plant)” value with Setaria faberi (SETFA) [18] was 100. Further, the “Post-Emergence Activity SORVU (damage to plant)” value in the assay with Sorghum bicolor (SORVU) stood at 50. Moreover, the “Post-Emergence Activity DIGSA (damage to plant)” value in assay [7] stood at 80. For the same compound, the “Post-Emergence Activity ALOMY (damage to plant)” value in assay [8] is recorded as 0. Also, the “Post-Emergence Activity AVEFA (damage to plant)” value in the assay with Avena fatua (AVEFA) [9] was 10. The “Post-Emergence Activity SETFA (damage to plant)” value in the assay with Setaria faberi (SETFA) [10] is listed as 90. The “Post-Emergence Activity ECHCG (damage to plant)” value in assay [11] is recorded as 70.

Turning to `CCc1ccc(-c2cc(Cl)c(Cl)cc2Cl)cc1C1=C(O)C(C)(C)CCC1=O` [Compound T20], the pest or weed control at 250 g/ha was 0% in [12]; 0% with Avena fatua (AVEFA) [13]; 90% in assay [15]; 50% in the assay with Lolium perenne (LOLPE) [20]; 0% in assay [16]; 40% in the assay with Avena fatua (AVEFA) [17]. Also, the pest or weed control at 250 g/ha was found to be 80% in assay [19] and 70% with Lolium perenne (LOLPE) [21].

Consider `CCc1ccc(-c2ccc(Cl)c(OC)c2)cc1C1=C(O)C(C)(C)CCC1=O` [Compound T6], for which the pest or weed control at 250 g/ha is 0% in assay [12]; 0% with Avena fatua (AVEFA) [13]; 80% in assay [15]; 0% in the assay on Lolium perenne (LOLPE) [20]; 0% in [16]; 40% in the assay with Avena fatua (AVEFA) [17]. For the same compound, the results for the pest or weed control at 250 g/ha (in assay [19]; in the assay on Lolium perenne (LOLPE) [21]) were 100% and 60%, respectively.

With `CCc1ccc(-c2ccc(Cl)nc2Cl)cc1C1=C(O)C(C)(C)CCC1=O` [Compound T12], the pest or weed control at 250 g/ha (in [12]; in the assay on Avena fatua (AVEFA) [13]; in assay [15]; in the assay with Lolium perenne (LOLPE) [20]; in assay [16]; with Avena fatua (AVEFA) [17]) was 0% throughout. Further, the results for the pest or weed control at 250 g/ha (in assay [19]; in the assay with Lolium perenne (LOLPE) [21]) were 90% and 0%, respectively.

Take `CCc1ccc(-c2ccc(Cl)c(Cl)c2)cc1C1=C(O)CC(C)(C)CC1=O` [Compound T22]: the pest or weed control at 250 g/ha in assay [12] is 20%; in the assay with Avena fatua (AVEFA) [13] it was 40%; in assay [15], 90%; with Lolium perenne (LOLPE) [20] it was 80%; in [16] it was 70%; with Avena fatua (AVEFA) [17], 40%. Further, the pest or weed control at 250 g/ha (in assay [19]; in the assay with Lolium perenne (LOLPE) [21]) was 100% in each case.

As to `CCc1ccc(-c2ccc(Cl)c(Cl)c2)cc1C1=C(O)CCCC1=O` [Compound T49], the pest or weed control at 250 g/ha was found to be 20% in assay [12]; 60% in the assay with Avena fatua (AVEFA) [13]; 100% in assay [15]; 100% in the assay with Lolium perenne (LOLPE) [20]; 50% in assay [16]; 80% in the assay with Avena fatua (AVEFA) [17]. Further, the figures for the pest or weed control at 250 g/ha (in [19]; in the assay on Lolium perenne (LOLPE) [21]) were 100% and 90%, respectively.

Turning to `CCc1ccc(-c2ccc(Cl)c(F)c2)cc1C1=C(O)CC(C)(C)CC1=O` [Compound T33], the pest or weed control at 250 g/ha was determined as 0% in assay [12]; 20% in the assay on Avena fatua (AVEFA) [13]; 90% in assay [15]; 90% in the assay with Lolium perenne (LOLPE) [20]; 100% in assay [16]; 80% in the assay with Avena fatua (AVEFA) [17]. The pest or weed control at 250 g/ha (in [19]; in the assay with Lolium perenne (LOLPE) [21]) was 100% each time.
